Each structure is given as a SMILES string. Converted amounts (≈) assume the structure as drawn. Where two headings read alike, the source gives them in different places.

Data set [1] in a line: Determination of thermodynamic solubility in phosphate buffer. Type of data set: physicochemical. As to conditions: pH 7.4, aqueous buffer, thermodynamic from solid, ammonium phosphate buffer pH7.4, 290 mOsm, 37° C., nominal 1 mg/mL, read-out: Solubility in PO4 buffer. The procedure:
Determination of Thermodynamic Solubility in Phosphate Buffer
The thermodynamic solubility of compound was determined in Ammonium Phosphate Buffer (pH7.4, 290 mOsm). Compounds were made up at a nominal concentration of 1 mg/mL, vortexed then placed on a shaker for 1 h, 37° C. at approximately 950 rpm. Following incubation samples were transferred to eppendorf tubes and centrifuged at 15,000 g (r.c.f.) for 10 minutes at 37° C. The concentration of compound in the supernatant was determined by LC-MS/MS analysis using a calibration line prepared from a DMSO stock.

A further data set deals with Human KLK1 (Homo sapiens (Human), UniProt P06870). As to the kind of experiment: Determination of the IC50 for KLK1. In kind it is biochemical. As to conditions: Human KLK1, 37° C., substrate H-DVal-Leu-Arg-AFC. Summed up:
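IC50 values reflect residual human KLK1 activity, read as initial rate from optical absorbance change at 410 nm. Incubations ran at 37° C with H-DVal-Leu-Arg-AFC as substrate across a compound concentration series.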

A further data set in a line: physchem. As to conditions: for solubility: pH 7, aqueous buffer, kinetic from dmso stock. The protocol: Determination of the Kinetic Solubility in Phosphate Buffer
After shaking for approximately 30 seconds the reduction in light transmission of these samples, at 650 nm, was measured (Molecular Devices Spectromax UV/visible spectrophotometer). A second measurement was taken at approximately 30 seconds later.

The target of a further data set is Human plasma kallikrein (Homo sapiens (Human), UniProt P03952). Description: Determination of the IC50 for plasma kallikrein. In kind it is biochemical. As to conditions: 37° C., read-out: IC50 (human PKal). Put shortly:
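Residual activity (initial rate, absorbance at 410 nm) gave the IC50. Reactions at 37° C combined human plasma kallikrein, substrate H-DPro-Phe-Arg-AFC and a range of inhibitor concentrations.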

The target in the next data set is Factor XIIa (Homo sapiens (Human), UniProt P00748). As to the kind of experiment: Determination of enzyme selectivity: Factor XIIa. The following applies: fluorogenic substrate at Km concentration. In kind it is biochemical. The procedure: Determination of Enzyme Selectivity
Factor XIIa, sequence (P00748 373-615): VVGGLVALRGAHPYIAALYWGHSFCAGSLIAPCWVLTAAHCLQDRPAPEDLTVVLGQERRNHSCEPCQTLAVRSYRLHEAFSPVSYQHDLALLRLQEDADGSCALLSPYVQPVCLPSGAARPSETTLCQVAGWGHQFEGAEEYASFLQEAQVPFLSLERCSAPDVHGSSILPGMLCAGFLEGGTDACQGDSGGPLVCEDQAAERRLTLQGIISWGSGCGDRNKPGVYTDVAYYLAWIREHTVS
Human serine protease enzymes plasmin, thrombin, trypsin, Factor Xa and Factor XIIa were assayed for enzymatic activity using an appropriate fluorogenic substrate. Protease activity was measured by monitoring the accumulation of liberated fluorescence from the substrate over 5 minutes. The linear rate of fluorescence increase per minute was expressed as percentage (%) activity. The Km for the cleavage of each substrate was determined by standard transformation of the Michaelis-Menten equation.

Where [2] appears, read: fluorogenic substrate H-DPro-Phe-Arg-AFC.

Human plasma kallikrein, sequence (P03952 391-638): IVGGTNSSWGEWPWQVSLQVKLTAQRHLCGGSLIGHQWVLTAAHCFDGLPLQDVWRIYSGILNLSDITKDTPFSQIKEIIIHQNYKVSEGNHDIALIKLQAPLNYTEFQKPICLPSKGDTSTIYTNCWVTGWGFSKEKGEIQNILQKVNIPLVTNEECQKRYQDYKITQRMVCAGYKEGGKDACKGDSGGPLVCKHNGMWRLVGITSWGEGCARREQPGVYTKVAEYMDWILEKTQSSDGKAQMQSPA
Human plasma kallikrein, sequence (P03952 20-390 partner): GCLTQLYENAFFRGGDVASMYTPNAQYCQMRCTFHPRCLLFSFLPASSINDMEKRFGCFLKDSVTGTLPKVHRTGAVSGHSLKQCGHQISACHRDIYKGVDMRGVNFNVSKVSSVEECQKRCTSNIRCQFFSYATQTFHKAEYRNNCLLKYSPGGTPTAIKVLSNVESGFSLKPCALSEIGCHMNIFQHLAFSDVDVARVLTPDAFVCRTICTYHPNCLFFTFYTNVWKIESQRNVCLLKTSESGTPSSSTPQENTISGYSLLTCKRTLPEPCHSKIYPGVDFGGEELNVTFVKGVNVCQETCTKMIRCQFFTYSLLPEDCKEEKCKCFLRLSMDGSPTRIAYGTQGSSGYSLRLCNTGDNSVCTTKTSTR
Human KLK1, sequence (P06870 25-262): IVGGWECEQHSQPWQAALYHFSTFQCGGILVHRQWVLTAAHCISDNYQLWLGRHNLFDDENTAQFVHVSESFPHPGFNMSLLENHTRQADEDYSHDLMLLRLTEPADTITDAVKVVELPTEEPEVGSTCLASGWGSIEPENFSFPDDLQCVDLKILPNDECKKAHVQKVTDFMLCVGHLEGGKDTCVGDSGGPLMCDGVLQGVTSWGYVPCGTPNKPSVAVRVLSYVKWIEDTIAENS

Take `CCOc1ccc(C[C@@H](NC(=O)c2ccccc2)C(=O)N(C)[C@@H](Cc2ccccc2)C(=O)NCc2ccc(CN)cc2)cc1` [Example 38, N-[(R)-1-{[(S)-1-(4-Aminomethyl-benzylcarbamoyl)-2-phenyl-ethyl]-methyl-carbamoyl}-2-(4-ethoxy-phenyl)-ethyl]-benzamide]: the solubility at 1 h in data set [1] was 14.6 µg/mL (≈ 24.5 µM). Besides, the IC50 on Human KLK1 (Table 12) was > 10000 nM; at Human plasma kallikrein (setting [2]), 47 nM. The solubility in PO4 buffer in “physchem” (pH 7) was > 235 µM.

Consider `CCOc1ccc(C[C@@H](NC(=O)c2sccc2Cl)C(=O)N(C)[C@@H](Cc2ccccc2)C(=O)NCc2ccc(CN)cc2)cc1` [Example 196, 3-Chloro-thiophene-2-carboxylic acid [(R)-1-{[(S)-1-(4-aminomethyl-benzylcarbamoyl)-2-phenyl-ethyl]-methyl-carbamoyl}-2-(4-ethoxy-phenyl)-ethyl]-amide], for which the IC50 against Human KLK1 (Table 13) is 9900 nM; against Factor XIIa, > 10000 nM; on Human plasma kallikrein (substrate H-DPro-Phe-Arg-AFC), 32 nM.

With `CCOc1ccc(C[C@@H](NC(=O)c2sccc2NC(C)=O)C(=O)N[C@@H](Cc2ccsc2)C(=O)NCc2ccc(CN)cc2)cc1` [Example 193, 3-Acetylamino-thiophene-2-carboxylic acid [(R)-1-[(S)-1-(4-aminomethyl-benzylcarbamoyl)-2-thiophen-3-yl-ethylcarbamoyl]-2-(4-ethoxy-phenyl)-ethyl]-amide], the results for the IC50 on Human KLK1 (Table 13), at Factor XIIa and on Human plasma kallikrein (substrate H-DPro-Phe-Arg-AFC) were > 10000 nM, > 10000 nM and 25 nM, respectively.

Consider `CCOc1ccc(C[C@@H](NC(=O)c2cccc(C)c2)C(=O)N[C@@H](Cc2cccnc2)C(=O)NCc2ccc(CN)cc2)cc1` [Example 189, N-[(R)-1-[(S)-1-(4-Aminomethyl-benzylcarbamoyl)-2-pyridin-3-yl-ethylcarbamoyl]-2-(4-ethoxy-phenyl)-ethyl]-3-methyl-benzamide], for which the IC50 is > 10000 nM at Human KLK1 (Table 13), > 10000 nM at Factor XIIa and 23 nM at Human plasma kallikrein (substrate H-DPro-Phe-Arg-AFC).

In the case of `CCOc1ccc(C[C@@H](NC(=O)c2[nH]ccc2C)C(=O)N[C@@H](Cc2csc3ccccc23)C(=O)NCc2ccc(CN)cc2)cc1` [Example 186, 3-Methyl-1H-pyrrole-2-carboxylic acid [(R)-1-[(S)-1-(4-aminomethyl-benzylcarbamoyl)-2-benzo[b]thiophen-3-yl-ethylcarbamoyl]-2-(4-ethoxy-phenyl)-ethyl]-amide], the values for the IC50 at Human KLK1 (Table 13), against Factor XIIa and on Human plasma kallikrein (substrate H-DPro-Phe-Arg-AFC) were 3800 nM, > 10000 nM and 14 nM, respectively.

`CCOc1ccc(C[C@@H](NC(=O)c2sccc2NC(C)=O)C(=O)N[C@@H](Cc2csc3ccccc23)C(=O)NCc2ccc(CN)cc2)cc1` [Example 195, 3-Acetylamino-thiophene-2-carboxylic acid [(R)-1-[(S)-1-(4-aminomethyl-benzylcarbamoyl)-2-benzo[b]thiophen-3-yl-ethylcarbamoyl]-2-(4-ethoxy-phenyl)-ethyl]-amide]: the IC50 against Human KLK1 (Table 13) was > 10000 nM; on Factor XIIa, > 10000 nM; on Human plasma kallikrein (substrate H-DPro-Phe-Arg-AFC), 14 nM.

For `CCOc1ccc(C[C@@H](NC(=O)c2ccc(Cl)cc2Cl)C(=O)N[C@@H](Cc2ccccc2)C(=O)NCc2ccc(CN)cc2)cc1` [Example 58, N-[(R)-1-[(S)-1-(4-Aminomethyl-benzylcarbamoyl)-2-phenyl-ethylcarbamoyl]-2-(4-ethoxy-phenyl)-ethyl]-2,4-dichloro-benzamide], in data set [1], the solubility at 1 h was 4.1 µg/mL (≈ 6.33 µM). For the same molecule, in the data set “physchem”, the solubility is 36 µM (≈ 23.3 µg/mL). In addition, on Human plasma kallikrein (setting [2]), the IC50 was found to be 170 nM.

As to `CCOc1ccc(C[C@@H](NC(=O)c2sccc2Cl)C(=O)N[C@H](C(=O)NCc2ccc(CN)cc2)[C@H](O)c2ccccc2)cc1` [Example 198, 3-Chloro-thiophene-2-carboxylic acid [(R)-1-[(1S,2R)-1-(4-aminomethyl-benzylcarbamoyl)-2-hydroxy-2-phenyl-ethylcarbamoyl]-2-(4-ethoxy-phenyl)-ethyl]-amide], the IC50 was 9100 nM against Human KLK1 (Table 13), > 10000 nM against Factor XIIa and 7 nM on Human plasma kallikrein (substrate H-DPro-Phe-Arg-AFC).

Regarding `CCOc1ccc(C[C@@H](NC(=O)/C=C/c2ccccc2)C(=O)N[C@@H](Cc2ccccc2)C(=O)NCc2ccc(CN)cc2)cc1` [Example 96, (E)-N-[(R)-1-[(S)-1-(4-Aminomethyl-benzylcarbamoyl)-2-phenyl-ethylcarbamoyl]-2-(4-ethoxy-phenyl)-ethyl]-3-phenyl-acrylamide], the IC50 on Human KLK1 (Table 13) was > 10000 nM; against Factor XIIa it was > 10000 nM; on Human plasma kallikrein (substrate H-DPro-Phe-Arg-AFC), 764 nM.

For the molecule `CCOc1ccc(C[C@@H](NC(=O)c2ccc(C(F)(F)F)cc2)C(=O)N[C@@H](Cc2ccccc2)C(=O)NCc2ccc(CN)cc2)cc1` [Example 56, N-[(R)-1-[(S)-1-(4-Aminomethyl-benzylcarbamoyl)-2-phenyl-ethylcarbamoyl]-2-(4-ethoxy-phenyl)-ethyl]-4-trifluoromethyl-benzamide], the solubility at 1 h in data set [1] was 0.9 µg/mL (≈ 1.39 µM). This molecule showed a solubility in “physchem” of 36 µM (≈ 23.3 µg/mL). In addition, the IC50 on Human plasma kallikrein (setting [2]) came to 500 nM.

`CCOc1ccc(C[C@@H](NC(=O)c2cccc3ccccc23)C(=O)N[C@@H](Cc2ccccc2)C(=O)NCc2ccc(CN)cc2)cc1` [Example 54, Naphthalene-1-carboxylic acid [(R)-1-[(S)-1-(4-aminomethyl-benzylcarbamoyl)-2-phenyl-ethylcarbamoyl]-2-(4-ethoxy-phenyl)-ethyl]-amide]: the solubility at 1 h in data set [1] worked out at 0.8 µg/mL (≈ 1.27 µM). In “physchem”, this molecule had a solubility of 12 µM (≈ 7.55 µg/mL). Besides, the IC50 at Human plasma kallikrein (setting [2]) was 83 nM.

With `CCOc1ccc(C[C@@H](NC(=O)c2sccc2C)C(=O)N[C@@H](Cc2ccccc2)C(=O)NCc2ccc(CN)cc2)cc1` [Example 119, 3-Methyl-thiophene-2-carboxylic acid [(R)-1-[(S)-1-(4-aminomethyl-benzylcarbamoyl)-2-phenyl-ethylcarbamoyl]-2-(4-ethoxy-phenyl)-ethyl]-amide], the solubility at 1 h in data set [1] came out at 1.61 µg/mL (≈ 2.69 µM). The IC50 came to 6100 nM at Human KLK1 (Table 13) and 15 nM on Human plasma kallikrein (substrate H-DPro-Phe-Arg-AFC).

Regarding `CCOc1ccc(C[C@@H](NC(=O)c2ccno2)C(=O)N[C@@H](Cc2cccnc2)C(=O)NCc2ccc(CN)cc2)cc1` [Example 174, Isoxazole-5-carboxylic acid [(R)-1-[(S)-1-(4-aminomethyl-benzylcarbamoyl)-2-pyridin-3-yl-ethylcarbamoyl]-2-(4-ethoxy-phenyl)-ethyl]-amide], in data set [1], the solubility at 1 h turned out to be 233 µg/mL (≈ 408 µM). Further, the IC50 on Human KLK1 (Table 13) was > 10000 nM; on Human plasma kallikrein (substrate H-DPro-Phe-Arg-AFC) it was 45 nM.

On to `CCOc1ccc(C[C@@H](NC(=O)c2ccsc2)C(=O)N[C@@H](Cc2ccccc2)C(=O)NCc2ccc(CN)cc2)cc1` [Example 72, Thiophene-3-carboxylic acid-[(R)-1-[(S)-1-(4-aminomethyl-benzylcarbamoyl)-2-phenyl-ethylcarbamoyl]-2-(4-ethoxy-phenyl)-ethyl]-amide], for which, in data set [1], the solubility at 1 h turned out to be 6.9 µg/mL (≈ 11.8 µM). Moreover, the IC50 amounted to 9100 nM on Human KLK1 (Table 13) and 46 nM at Human plasma kallikrein (substrate H-DPro-Phe-Arg-AFC).

As for `CCOc1ccc(C[C@@H](NC(=O)c2ccc(F)c(F)c2)C(=O)N[C@@H](Cc2ccccc2)C(=O)NCc2ccc(CN)cc2)cc1` [Example 59, N-[(R)-1-[(S)-1-(4-Aminomethyl-benzylcarbamoyl)-2-phenyl-ethylcarbamoyl]-2-(4-ethoxy-phenyl)-ethyl]-3,4-difluoro-benzamide], the solubility at 1 h in data set [1] turned out to be 7.7 µg/mL (≈ 12.5 µM). Besides, the concentration in solution in “physchem” (solubility) came to 36 µM (≈ 22.1 µg/mL). Besides, the half-inhibitory concentration (IC50) at Human plasma kallikrein (setting [2]) is 78 nM.

As for `CCOc1ccc(C[C@@H](NC(=O)c2ccccn2)C(=O)N[C@@H](Cc2ccccc2)C(=O)NCc2ccc(CN)cc2)cc1` [Example 81, Pyridine-2-carboxylic acid [(R)-1-[(S)-1-(4-aminomethyl-benzylcarbamoyl)-2-phenyl-ethylcarbamoyl]-2-(4-ethoxy-phenyl)-ethyl]-amide], the solubility at 1 h in data set [1] is 1.3 µg/mL (≈ 2.24 µM). The IC50 at Human KLK1 (Table 13) was > 10000 nM; at Human plasma kallikrein (substrate H-DPro-Phe-Arg-AFC) it was 40 nM.

`CCOc1ccc(C[C@@H](NC(=O)c2ccc(OC)cc2)C(=O)N[C@@H](Cc2ccccn2)C(=O)NCc2ccc(CN)cc2)cc1` [Example 158, N-[(R)-1-[(S)-1-(4-Aminomethyl-benzylcarbamoyl)-2-pyridin-2-yl-ethylcarbamoyl]-2-(4-ethoxy-phenyl)-ethyl]-4-methoxy-benzamide]: the solubility at 1 h in data set [1] was found to be 70.6 µg/mL (≈ 116 µM). Further, the IC50 on Human KLK1 (Table 13) is > 10000 nM; on Human plasma kallikrein (substrate H-DPro-Phe-Arg-AFC), 47 nM.

`CCOc1ccc(C[C@@H](NC(=O)c2ccc(Cl)cc2)C(=O)N[C@@H](Cc2ccccc2)C(=O)NCc2ccc(CN)cc2)cc1` [Example 55, N-[(R)-1-[(S)-1-(4-Aminomethyl-benzylcarbamoyl)-2-phenyl-ethylcarbamoyl]-2-(4-ethoxy-phenyl)-ethyl]-4-chloro-benzamide]: the solubility at 1 h in data set [1] worked out at 1.5 µg/mL (≈ 2.45 µM). Also, the solubility in the data set “physchem” is 36 µM (≈ 22.1 µg/mL). Further, the IC50 on Human plasma kallikrein (setting [2]) came out at 31 nM.

By solubility is commonly meant how much of the substance goes into solution per volume. What is called IC50 is the concentration that inhibits the measured activity by half.

The record behind these values is US9234000B2, “Benzylamine derivatives as inhibitors of plasma kallikrein” (KalVista Pharmaceuticals Limited, priority 2011, dated 2016).
